Test results: patent US20230310446A1, “RHO KINASE INHIBITION FOR TREATMENT OF PROLIFERATIVE VITREORETINOPATHY AND CONDITIONS ASSOCIATED WITH EPITHELIAL TO MESENCHYMAL TRANSITION” (The Schepens Eye Research Institute, Inc., priority 2020, published 2023)
“Also recorded” adds a separate entry of the source.

Legend:
PVR explants [1] = assay: Ex vivo model of PVR: outgrowth from PVR membrane explants embedded in Matrigel; assay type: cell-based, human; conditions: for explant outgrowths, inhibition of proliferation and migration: 1 μM, all time points
Protocol: PVR membranes were divided into pieces and embedded in growth factor reduced Matrigel (354,230; BD Biosciences, San Jose, CA) in a 24-well plate and placed at 37° C. for 30 min for the Matrigel to solidify. The specimens were treated with either vehicle or Rho kinase inhibitors, Netarsudil (60 nM), Ripasudil (300 nM), Fasudil (1 uM), and Y27632 (1 uM) in 500 μl in PVR growth media comprising: • 1) Endothelial base medium (EBM2; Lonza-CC-3156)+ • 2) EGM 2 SingleQuot Kit suppl. & Growth factors (Lonza; CC-4176)+ • 3) 10% fetal bovine serum (Atlanta Biologicals)+ • 4) 1% Penicillin/Streptomycin+1% L-Glutamine • *** The total FBS in the media is 12% (2% from SingleQuot+10% additional) Phase contrast images were taken using an EVOS FL imaging system (Life Technologies) and the distance of growth from the embedded tissue was quantified using Image J (National Institutes of Health). PVR membranes were obtained from human donors with PVR grade C undergoing surgery. Membrane fragments placed on a matrigel mount with PVR cell growth media and treated with Rho-Kinase inhibitors ripasudil (1 μM), netarsudil (1 μM), fasudil (1 μM), Y-27632 (1 μM) and control with no drug.

C-PVR cells [2] = assay: TGF-β2 induced mesenchymal phenotypic change, phase images; assay type: cell-based, human; conditions: 1 uM, TGF-β2 10 ng/ml, day 3
Protocol: PVR cells were seeded in well plates for a period of 72 hours. Cells were pre-treated with rho-kinase inhibitors: ripasudil, netarsudil, fasudil and […] (1 uM) for 24 hours, then treated with TGF-β2 […], rho-kinase inhibitors (1 uM), and control with no drug, using triplicates for each condition. Changes in phenotype were examined via phase images at day 3.

PVR explants [3] = assay: Ex vivo model of PVR: outgrowth from PVR membrane explants embedded in Matrigel; assay type: cell-based; conditions: ex vivo cultured explants of PVR tissue from human subjects
C-PVR cells [4] = assay: CyQUANT Direct Cell Proliferation Assay of primary PVR cultures; assay type: cell-based, human; conditions: 48 hours
Protocol: PVR cells were cultured and seeded into 96 well assay plates at 10,000 cells/well in complete growth media. […] Cell proliferation was assessed at 24, and 48 hour time points by CyQUANT® Direct Cell Proliferation Assay (Thermofisher Scientific) and compared to vehicle controls at 24, and 48 hours post treatment. The data was expressed as percent cell inhibition. […] Cell proliferation and cell death LDH levels were measured and quantified at 48 hours.

C-PVR cells [5] = assay: LDH release cytotoxicity assay (CytoTox 96) of primary PVR cultures; assay type: cell-based, human; conditions: 48 hours
Protocol: Conditioned media was also collected at 24, and 48 hour time points for each condition, and percentage cell death was quantified by measuring LDH release using the CytoTox 96 Non-Radioactive Cytotoxicity Assay (Promega, Madison, WI, USA). As a positive control, the same number of cells maintained in parallel was lysed by two freeze—thaw cycles; the conditioned media were collected to measure the maximum LDH release. Percentage LDH release was calculated as 100%×(experimental LDH−spontaneous LDH)/(maximal LDH−spontaneous LDH).
PVR cells were cultured using Rho-Kinase inhibitors ripasudil, netarsudil, fasudil, Y-27632 at different concentrations (0.1 μM, 10 μM) and control with no drug. Cell proliferation and cell death LDH levels were measured and quantified at 48 hours.

C-PVR cells [6] = assay: Cell migration of PVR cells quantified with phase images; assay type: cell-based, human; conditions: 1 μM
Protocol: PVR cells cultured using Rho-Kinase inhibitors ripasudil (1 μM), netarsudil (1 μM), fasudil (1 μM), Y-27632 (1 μM) and control with no drug. Cell migration was measured and quantified with phase images at 0, 3, 6, and 12 hours.

RhoA = RhoA pull down activation assay after TGF-β2 treatment; assay type: cell-based, human; conditions: C-PVR cells
Protocol: C-PVR cells were cultured and seeded in T-25 flasks at 1 million cells per flask. […] Cells were washed with ice-cold PBS and cell lysates were harvested with a cell scraper. Protein concentration of each time point was measured to ensure equal protein concentration. Using freshly prepared cell lysates, equivalent protein amounts (300-500 ug total protein) were added to 30 ul of rhotekin-RBD beads (Cytoskeleton, Denver, CO) for the […] pulldown assay. Pulldown assay supernatants were quantified using western blot analysis. An anti-RhoA primary antibody (Cytoskeleton, Denver, CO) was added and left overnight at 4° C., After primary antibody intubation, HRP labeled secondary antibody was added, following by addition on HRP detection reagent and intubated at room temperature for 5 minutes,
PVR cells cultured in T-25 flasks and treated with TGF-β2 […] at 80% confluence. […]

[7] = 7 days post embedding in Matrigel
[8] = 14 days post embedding in Matrigel

Molecule	explant outgrowths, inhibition of proliferation and migration (PVR explants [1]; listed as Y-2762, dihydrochloride)	mesenchymal phenotypic change in TGF-β2 treated C-PVR cells (C-PVR cells [2])	numbers of live cells in the explants (PVR explants [3])	reduction of proliferation in C-PVR cells (C-PVR cells [4]; 0.1 μM (lowest concentration))	reduction of proliferation in C-PVR cells (C-PVR cells [4]; 1 μM (lower concentration))	reduction of proliferation in C-PVR cells (C-PVR cells [4]; 10 μM (highest concentration))	cell death detected by LDH analysis (C-PVR cells [5]; all concentrations (10-0.1 μM))	reduction of migration in C-PVR cells (C-PVR cells [6])	explant outgrowths, inhibition of proliferation and migration (PVR explants [1])	cell death detected by LDH analysis (C-PVR cells [5]; low concentrations (0.1 μM))	explant outgrowth (PVR explants [1]; [7])	explant outgrowth (PVR explants [1]; [8])	RhoA activation, increase over control (RhoA; 15 minutes after stimulation)	RhoA activation, increase over control (RhoA; 30 minutes after stimulation)	RhoA activation versus control (RhoA; 60 minutes after stimulation)
C[C@@H](N)[C@H]1CC[C@H](C(=O)Nc2ccncc2)CC1.Cl.Cl [Y-27632, (+)-(R)-trans-4-(1-aminoethyl)-N-(4-pyridyl)cyclohexanecarboxamide dihydrochloride]	no outgrowths and almost complete inhibition of proliferation and migration	slightly decreased	significantly reduced	–	–	–	–	–	–	–	–	–	–	–	–
O=S(=O)(c1cccc2cnccc12)N1CCCNCC1 [fasudil, 1-(5-isoquinolinesulfonyl)-homopiperazine]	–	slightly decreased	significantly reduced	24%	39%	20%	low levels of cell death	40%	no outgrowths and almost complete inhibition of proliferation and migration	–	–	–	–	–	–
Cc1ccc(C(=O)OCc2ccc([C@@H](CN)C(=O)Nc3ccc4cnccc4c3)cc2)c(C)c1 [netarsudil]	–	–	–	39%	37%	95%	dose dependent cell death	100%	–	Low levels of cell death	4.2 mm	37 mm	–	–	–
C[C@H]1CNCCCN1S(=O)(=O)c1cccc2cncc(F)c12 [ripasudil, 4-fluoro-5-[[(2S)-2-methyl-1,4-diazepan-1-yl]sulfonyl]isoquinoline]	–	slightly decreased	–	21%	25%	44%	dose dependent cell death; also recorded: Low levels of cell death	65%	–	–	0.8 mm	15 mm	–	–	–
TGF-β2: Recombinant Human TGF-β2 growth factor (PeproTech) used as stimulus of EMT and RhoA activation (protein, UniProt P61812 303-414, looked up) Transforming growth factor …: ALDAAYCFRNVQDNCCLRPLYIDFKRDLGWKWIHEPKGYNANFCAGACPYLWSSDTQHSRVLSLYNTINPEASASPCCVSQDLEPLTILYYIGKTPKIEQLSNMIVKSCKCS	–	–	–	–	–	–	–	–	–	–	–	–	1.5	2 fold	slight decrease over control
